The text below walks through data of patent US20240016784A1, “Y BOX BINDING PROTEIN 1 INHIBITORS” (Oregon Health & Science University, priority 2020, published 2024).

One data set has as its system OVCAR-8 and ID8 cells. Nature of the data set: Clonogenic assay. It is filed as cell-based. The protocol:
(§1) We tested the relationship between AzPs dose and the viability of human ovarian cancer cell lines and the ID8 murine ovarian cancer cell line.
(§2) Clonogenic assay: 300 suspended OC cells were plated in each well of 12 well plates (Corning-Costar, #3598) and incubated for 24 h for attachment. The media was replaced after 24 h with media containing a respective concentration of the test compound and incubated for 5-8 days until visible colonies appeared in vehicle-treated wells. Cells were then washed and fixed with 2% paraformaldehyde, followed by washing and staining with 0.5% Crystal violet for 1 h. Cells were de-stained using DI water and allowed to dry. Colonies were counted under the microscope at 100× magnification.
(§3) FIG. 1A) Lead optimization of SU093 to obtain SU056. FIG. 1B) IC50 values of SU093 and SU056 on various ovarian cancer cells. Clonogenic survival of OC cells treated with SU093 or SU056. […] FIG. 1C) Representative colony formation from respective wells. FIG. 1D) Number of colonies formed after SU093 and SU056 treatment. […] FIG. 1F) Cell cycle distribution of propidium iodide (PI)-stained OVCAR8, SKOV3, and ID8 cells. […] FIG. 1G) Effects of SU093 and SU056 on apoptotic cell death analyzed by Annexin-FITC staining. […] FIG. 1H) Cell migration assay.

The next data set relates to ovarian cancer cells. Nature of the data set: Apoptotic cell death assay (Annexin-FITC). It is filed as cell-based. Conditions: 24 h treatment; Annexin-FITC staining. The protocol: (§4) To determine whether proliferation inhibition was the dominant factor driving the reduction in OC viability seen with AzP treatment, we used propidium iodide and annexin-FITC stains with flow cytometry to measure the distribution of cell cycle phases after treatment. […] Furthermore, in the Boyden chamber assay for cell migration, SU093 inhibited cell migration by 40-46% (1 μM, P<0.05) in different OC cell lines.
Apoptotic cell death assay: Cells were plated and treated as described in cell cycle analysis assay above. Treated cells were incubated for 24 h and both live and dead cells were collected. Cells were stained with Annexin V and PI using FITC Annexin V apoptosis detection kit (BD Pharmingen, San Jose, CA) by following the manufacturer's protocol. Guava® easyCyte™ Flow Cytometer was used to analyze the stained cells.
as §3

Another data set concerns OC cell lines. Nature of the data set: Cell migration assay (Boyden chamber). It is filed as cell-based. To be noted: different OC cell lines, P<0.05. The procedure: as §4
Cell migration assay: 1×10^5 cells were plated in 60 mm cell culture dishes (Corning-Falcon, #353002) and incubated for 24 h. […] Cells were trypsinized and collected in a conical tube for each plate. Pellets of cells were resuspended, and live cells were counted using a hemocytometer and trypan blue staining. 40,000 live cells were then plated in the upper chamber of 8-micron transwell (Corning-Falcon, #353097) with 0.2% FBS media. The lower chamber contained 10% FBS complete media. […] Each transwell was washed, swiped for non-migrated cells and fixed using 75% ethanol. Fixed transwells were stained with 0.5% crystal violet for 1 h. De-stained transwell membranes were cut and mounted on a slide using DPX mounting media. Migrated cells were counted under the microscope at 100× magnification.
FIG. 1A) Lead optimization of SU093 to obtain SU056. […] FIG. 1G) Effects of SU093 and SU056 on apoptotic cell death analyzed by Annexin-FITC staining. […]

Another data set has as its system SKOV-3. The data set can be described thus: Clonogenic assay. Format: cell-based, human. To be noted: 0.5 & 1 μM. The procedure:
as §1, §2, §3

Data set [1] is described as follows: Liver toxicity parameters (ALT, AST, ALKP) in ID8 study. Conditions: 20 mg/kg daily IP, 42 days. Format: in vivo, C57BL/6 mice. The procedure:
(§5) These promising results led us to test SU093 and SU056 in vivo. C57BL/6 mice were implanted with 2×10^6 firefly luciferase (luc+)-expressing ID-8 syngeneic ovarian cancer cells subcutaneously. Once the tumors reached 100 mm^3 in size, we began daily intraperitoneal treatment with SU093 and SU056 at 20 mg/kg (vehicle control 30% PEG-300 in saline). Tumor growth was monitored via bioluminescence imaging (IVIS).
(§6) In vivo xenograft model and drug efficacy study: All animal experiments were reviewed and approved by the Animal Care and Use Committee of Stanford University, CA, USA. Luciferase tagged ID8 (2×10^6) or OVCAR8 (5×10^6) cells were implanted into the right flank of 6-7-week-old female C57BL/6 mice and NOD/SCID mice, respectively. Respective treatment began after tumors grew to 100-200 mm^3 diameters. The ID8 syngeneic mice model was treated with a vehicle (30% PEG-300 in saline), 20 mg/kg SU093, and 20 mg/kg SU056 intraperitoneally (IP) daily for 42 days. At the end of treatment, blood was collected from each mouse and analyzed for liver toxicity parameters, including Alanine Aminotransferase (ALT), Aspartate Aminotransferase (AST), and Alkaline Phosphatase (ALKP). […]

In data set [2] the test system is OVCAR8, SKOV3, and ID8 cells. The data set can be described thus: Cell cycle analysis (propidium iodide, flow cytometry). Conditions: 12 h treatment; PI-stained OVCAR8, SKOV3, ID8. Format: cell-based. The procedure:
as §4
Cell cycle analysis: 30,000 OC cells were plated in each well of 12 well plates and incubated for 24 h. […] Both live and dead cells were collected via trypsinization and cell pellets were fixed with 70% ethanol. Fixed cells were stained using propidium iodide (PI) cocktail (80 μg/mL RNase A and 50 μg/mL PI in saponin-EDTA solution) and incubated at 4° C. overnight. Each sample was analyzed using a Guava® easyCyte™ Flow Cytometer (Millipore, Burlington, MA). FlowJo software calculated the % cells in each cell cycle phase.
as §3

The next data set deals with ID-8 tumor xenograft. The data set can be described thus: ID8 syngeneic ovarian tumor model, tumor growth and lung metastasis. Format: in vivo, C57BL/6 mice. The protocol: as §5
Due to prior observation of a significant reduction in the migratory ability of OC cells treated with the two drugs (FIG. 1H), we also measured the effect of drug treatment on ovarian cancer metastases. At the end of above experiment, lungs were fixed and metastatic foci were counted under the dissecting microscope followed by H&E staining.
In vivo xenograft model and drug efficacy study: All animal experiments were reviewed and approved by the Animal Care and Use Committee of Stanford University, CA, USA. Luciferase tagged ID8 (2×10^6) or OVCAR8 (5×10^6) cells were implanted into the right flank of 6-7-week-old female C57BL/6 mice and NOD/SCID mice, respectively. Respective treatment began after tumors grew to 100-200 mm^3 diameters. The ID8 syngeneic mice model was treated with a vehicle (30% PEG-300 in saline), 20 mg/kg SU093, and 20 mg/kg SU056 intraperitoneally (IP) daily for 42 days. At the end of treatment, blood was collected from each mouse and analyzed for liver toxicity parameters, including Alanine Aminotransferase (ALT), Aspartate Aminotransferase (AST), and Alkaline Phosphatase (ALKP). OVCAR8 xenograft mice model was treated with vehicle (30% PEG-300 in saline), 5 mg/kg paclitaxel (once a week), 10 mg/kg SU056 (daily), a combination of paclitaxel (5 mg/kg, once a week) and SU056 (10 mg/kg, daily) for 4 weeks. Mice from both studies were euthanized, the tumor and different organs were collected and fixed in neutral buffered formalin and further processed for immunohistochemical analysis.
FIGS. 2A-2F. SU093 and SU056 inhibit mice ovarian ID-8 tumor xenograft growth in C57BL/6 mice. Mice were subcutaneously injected with ID-8 cells mixed with Matrigel in 1:1 ratio and the drug treatment started when tumors reached 100 mm^3. […] FIG. 2B) Tumor volume/mouse as a function of time. […] FIG. 2C) Tumor weight/mouse at the end of the study. […] FIG. 2D) Liver toxicity parameters at the end of 42 days showing no significant difference between control, SU093, and SU056. FIGS. 2E-2F) Lung metastasis assay. FIG. 2E) H&E staining of the lung (red arrow indicates the metastasis from ID8 xenograft). Scale bar, 250 μm. FIG. 2F) No. of lung metastatic nodules.

A further data set relates to YB-1 and MDR1. The data set can be described thus: Immunoblotting of YB-1 and MDR1 in OVCAR8 cells. Format: cell-based, human. To be noted: paclitaxel 0.5 nM, SU056 0.5 μM, 12 h.
The subject of the next data set is OVCAR8 OC tumors. Nature of the data set: OVCAR8 xenograft combination study. Format: in vivo, NOD-SCID mice. Conditions: SU056 10 mg/kg daily, paclitaxel 5 mg/kg weekly, intraperitoneal, 28 days. The procedure:
In a pharmacokinetics study in vivo, injection of 20 mg/kg SU056 led to a maximum serum concentration of 28.19 μg/mL with a T1/2 of ˜45 min. We then tested the synergism of paclitaxel and SU056 co-treatment in vivo in NOD-SCID mice implanted with OVCAR8 OC tumors as described above. Mice were given daily treatment of SU056 (10 mg/kg) and weekly treatment of paclitaxel (5 mg/kg) were administered intraperitoneally. […] This likely resulted from decreased paclitaxel efflux from OVCAR8 cells in the presence of SU056.
as §6

Molecules are shown by their SMILES.

Protocol for YB-1 and MDR1: Immunoblotting: Once 70% confluency of OC cells plated in 100 mm cell culture was obtained, dishes were treated with a respective concentration of SU056 for a respective time. At the end of treatment, cells were collected and lysed using M-PER™ lysis solution (Thermo Scientific, #78503), supplemented with Halt protease and phosphatase inhibitor cocktail (Thermo Scientific, #78440). An equal amount (40-60 μg) of proteins was resolved using 8%/10%/12% SDS-PAGE gel electrophoresis. Proteins were then transferred onto a PVDF membrane (Bio-Rad, #162-01277). Blocked membranes were incubated with respective primary antibody solution prepared in 5% nonfat milk TPBS at 4° C. overnight with gentle rocking. Primary antibody-probed membranes were washed and probed with respective HRP-conjugated secondary antibody. Proteins were detected using Immobilon® Crescendo Western HRP Substrate (Millipore, Germany) and visualized on an IVIS Lumina Imaging System (Perkin Elmer, Waltham, MA). […]

As to `COc1ccc2c(c1)N(CCO)C1=C(C(=O)OC1)C2c1cccc(F)c1` (stereo not shown) [SU093, 9-(3-fluorophenyl)-4-(2-hydroxyethyl)-6-methoxy-4,9-dihydrofuro[3,4-b]quinolin-1(3H)-one, reference compound], the OC colony formation entry with OVCAR-8 and ID8 cells was “decreased OC colony formation in a dose-dependent and significant manner”. Further, the apoptotic cell death result in the data set on ovarian cancer cells is given as “induce apoptotic cell death”. The same compound had an inhibition at 1 µM in the data set on OC cell lines of 40 to 46%. The “colony formation, effect on SKOV-3” value in the data set with SKOV-3 was “moderately affect”. Besides, the “impact on blood chemistry indicators (AST, ALT, alkaline phosphatase)” value in data set [1] is given as “no significant impact”. Further, the cell cycle distribution entry in data set [2] is given as “G1 phase arrest”. Besides, in the data set on ID-8 tumor xenograft (20 mg/kg daily IP, at 42 days), the “reduction in tumor weight” value is 1.5 fold. In the data set with ID-8 tumor xenograft (20 mg/kg daily intraperitoneal, bioluminescence imaging), the “tumor progression vs vehicle control” value is “significantly delay the tumor progression”.

As for `CC(=O)O[C@H]1C(=O)[C@@]2(C)[C@H]([C@H](OC(=O)c3ccccc3)[C@]3(O)C[C@H](OC(=O)[C@H](O)[C@@H](NC(=O)c4ccccc4)c4ccccc4)C(C)=C1C3(C)C)[C@]1(OC(C)=O)CO[C@@H]1C[C@@H]2O` [paclitaxel, reference compound], in the data set with YB-1 and MDR1, the “expression of YB-1 and MDR1 (Western blot)” value was “upregulate the expression of YB-1 and MDR1”. Further, the OC tumor growth entry in the data set on OVCAR8 OC tumors was “significant reduction in OC tumor growth”.
